Experimental data taken from patent publication US9511120B2, “Use of the angiotensin-(1-9) peptide or derivatives thereof, use of vectors overexpressing the ACE2 enzyme that produces angiotensin-(1-9) for preparing medicaments useful for preventing, reverting, inhibiting and/or reducing hypertension and/or inducing vasodilation” (PONTIFICA UNIVERSIDAD CATÓLICA DE CHILE, priority 2012, dated 2016).
Where no end group is shown, it is not given here.

Tests used:
Type in all cases: in vivo, rat
collagen I [1] = test: Angiotensin II infusion model: collagen I protein levels in the aortic wall by Western blot; conditions: angiotensin II-hypertensive rats
Experimental: Rats were subjected to the model of angiotensin II infusion (Grobe et al.: Am. J. Physiol. 292: H736-42, 2007). The animals were separated randomly into the following experimental groups: controls (Sham or pseudo-operated), infused with angiotensin II (300 ng/kg min), infused with angiotensin II and angiotensin-(1-9) (300 ng/kg min and 602 ng/kg min, respectively), and then infused with angiotensin II, angiotensin-(1-9) and the angiotensin-(1-7) receptor antagonist, A779 (300 ng/kg min, 602 ng/kg min, and 100 ng/kg min, respectively). In all cases the pumps operated at a flow of 0.5 μL/h and were implanted in the right jugular vein through a catheter fitted in an intrascapular subcutaneous pocket under anesthesia with ketamine HCl/xylazine (35 and 7 mg/kg i.p., respectively), for a period of 14 days.
(§1) For the determination of collagen I and TGFβ-1, 30 μg and 50 μg of total proteins were used, respectively, diluted in SDS reducing buffer (50 mM tris-HCl, pH 7.4, NP-40 10%, NaCl 1M, Na deoxycholate 5%, EDTA 10 mg/mL, SDS 10%, aprotinin 1 mg/mL, leupeptin 0.1 mg/mL, PMSF 10 mM), they were then separated by SDS-PAGE gel electrophoresis 7%, and transferred to nitrocellulose membranes of […] to 300 mA for 1 h. The transfer of proteins was monitored by Ponceau red staining. […]

collagen I [2] = test: Goldblatt model: collagen I protein levels in the aortic wall; conditions: GB rats
Source text: (§2) Lewis normotensive rats (weight 150±10 g), which were separated randomly into the experimental hypertension model group or GB (Ocaranza et al. J. Hypertens. 20:413-20, 2002) or control group (S) were used. The latter corresponded to pseudo-operated animals. All animals were maintained under controlled conditions of light and darkness and had free access to food and water. Four weeks after surgery and at a blood pressure above 140 mmHg, GB rats were randomized for the chronic administration of angiotensin-(1-9) through an osmotic pump (602 ng kg^−1min^−1) via the jugular vein during two weeks. The animals were euthanized after 6 weeks post-surgery.
as §1

[3] = test system: cardiomyocyte hypertrophy of hypertensive rats by pressure overload; test: Goldblatt model: cardiomyocyte area and perimeter; conditions: GB rats
Source text: as §2
The middle portion of the left ventricle (LV) was dehydrated at room temperature for 24 h in Bouin and then embedded in paraffin. Sections of 10-15 μm thick were taken and stained with hematoxylin-eosin, to be examined later in a light microscope in order to observe their general morphological characteristics. Cardiomyocyte size was determined according to Nakamura et al. (Circulation, 98:794-9, 1998). […] The cardiomyocyte area and perimeter were measured and recorded, using the Nis-Element program (Ocaranza et al. J. Hypertens., 28:1054-64, 2010). All measurements were performed by a blinded observer, and at least 80 images of cells per animal, which were randomly selected, were analyzed.

[4] = test system: hypertensive myocardial fibrosis by pressure overload; test: Goldblatt model: volume fraction of total collagen in the ventricle (picrosirius red); conditions: GB rats
Source text: as §2
Sections of 5 μm of ventricle, previously included in Bouin, which were treated with picrosirius red, were used. The tissue was examined under light microscopy, images were captured with a Nikon DS Fi1 camera and projected on a monitor. The Matlab program was used to measure the interstitial collagen content according to the procedure described by Ocaranza et al. (J. Cardiovasc. Pharmacol. 40:246-54, 2002).

DRVYIHPFH
prevention of the increase of collagen in the aortic wall (collagen I [1]): 60% | reduction of the increase of collagen in the aorta wall (collagen I [2]): 54% | decrease of cardiomyocyte area as compared to hypertensive rats [3]: 16% | decrease of cardiomyocyte perimeter as compared to hypertensive rats [3]: 22% | decrease of VFTC as compared to untreated hypertensive rats [4]: 41% | volume fraction of total collagen (VFTC) ([4]; untreated GB 6.5±1): 3.8%
